The source of these data is US20220136068A1, “METHODS OF DETECTING AND TREATING VENETOCLAX-RESISTANT ACUTE MYELOID LEUKEMIA” (The Regents of the University of Colorado, A Body Corporate, priority 2019, published 2022).

In one assay the test system is prim-AML ROS-low LSCs. Briefly: In vitro viability of sorted ROS-low LSCs from primitive AML. Format: cell-based, human. The following applies: in vitro treatment. As to the method: (§1) FIG. 2 is a series of charts showing viability of sorted ROSlow LSCs from mono-AML (n=5) and prim-AML (n=7) after 24 hours in vitro treatment with venetoclax alone or in combination with a fixed dose of 1.5 μM azacitidine. Each data point was expressed as mean±SD of technical triplicates. All viability data were normalized to untreated control.
(§2) To understand if the lack of response by monocytic AML to VEN+AZA is driven by intrinsic mechanisms, VEN+AZA sensitivity was directly evaluated in vitro, where protection from extrinsic factors such as the microenvironment is minimal. For these experiments, a second cohort of AML specimens with sufficient material to allow for more robust in vitro experimentation was used (herein referred to as Research Cohort 2). Using the surface expression profile of CD117, CD11b, CD68 and CD64, the primitive or monocytic compartment was isolated for analysis (herein referred to as prim-AML or mono-AML, respectively). Prim-AML has the phenotype of CD117+/CD11b−/CD68−/CD64− and mono-AML is predominantly CD117−/CD11b+/CD68+/CD64+. The in vitro drug sensitivity of these populations is shown in FIG. 2 and closely correlates with relative responses observed for the Clinical Cohort.
(§3) The relative sensitivity of LSCs derived from primitive versus monocytic AML specimens was analyzed. […]

A further assay concerns mono-AML ROS-low LSCs. As to the kind of experiment: In vitro viability / cell death of sorted ROS-low LSCs from monocytic AML. The following applies: 24 hours in vitro treatment; FIG. 2, FIG. 3. It counts as cell-based, human. Here is the method: as §1
FIG. 3 is a series of bar graphs viability of three mono-AMLs from the Research Cohort 2 after 24 hours in vitro treatment with various single or combinations drugs.
as §2, with “The in vitro drug sensitivity of these populations is shown in FIG. 2 and closely correlates with relative responses observed for the Clinical Cohort.” left out
as §3

Regarding `Nc1ncn([C@@H]2O[C@H](CO)[C@@H](O)[C@H]2O)c(=O)n1` [AZA, azacitidine], in the assay on prim-AML ROS-low LSCs, the “sensitivity/resistance (viability) of prim-AML ROS-low LSCs” value is “sensitive”. In the case of `COCCn1c2c([n+](Cc3cnccn3)c1C)C(=O)c1ccccc1C2=O` [YM155], the “sensitivity/resistance (viability) of mono-AML ROS-low LSCs” value with mono-AML ROS-low LSCs is “sensitive”. Moreover, in the assay on prim-AML ROS-low LSCs, the “sensitivity/resistance (viability) of prim-AML ROS-low LSCs” value is listed as “highly resistant”.
